Measurements: US20260158070A1, “COMPOSITIONS AND METHODS FOR THE TREATMENT AND DIAGNOSIS OF CANCERS ASSOCIATED WITH SURFACE K-RAS” (UNIVERSITY OF MARYLAND, BALTIMORE, priority 2023, published 2026)

Columns and labels:
[1] = system: Panc-1 (pancreatic carcinoma carrying a K-RAS G12D mutation); assay: Fab-ZAP assay (saporin-linked secondary antibody, XTT); type: cell-based, human; conditions: 4.5 nM FabZAP, 5 days
Description: (§1) Saporin is a 30 kDa ribosome-inhibitor which is unable to cross a cell membrane unaided (except at extremely high concentrations). However, when it is conjugated to an internalizing antibody, as previously described (DOI: 10.3390/toxins14030184), it can be used to kill target cells precisely and specifically with little to no off-target toxicity (See, for example, Lund et. al., mAbs, 6(4), 1038-1050, doi.org/10.4161/mabs.28207). […]
(§2) We specifically utilized Panc-1 (pancreatic carcinoma carrying a K-RAS G12D mutation), Capan-2 (pancreatic carcinoma carrying a K-RAS G12V mutation), AsPC-1 (pancreatic cell line carrying a K-RAS G12D mutation), LS180 (colon cancer cell line carrying a K-RAS G12D mutation), SW480 (colon cancer cell lines carrying a K-RAS G12V mutation), Capan-2 (pancreatic cancer cell line carrying a K-RAS G12V mutation), and two lung cancer cell lines (SK-LU-1 carrying a K-RAS G12D mutation and NCI-H2444 carrying a K-RAS G12V mutation). […] After 5 days incubation at 37 C in a 5% CO2 incubator, the percentage of viable cells compared to control wells with 4.5 nM FabZAP alone was determined using XTT assay according to the described protocol (Advanced Targeting Systems Inc cytotoxic assay protocol). […] Plates were then incubated at 37° C. for a minimum of 30 mins and absorbance was read at 450 nm in a plate reader. […]

[2] = system: AsPC-1 (pancreatic cell line carrying a K-RAS G12D mutation); assay: as above; type: cell-based; conditions: 4.5 nM FabZAP, 5 days
Description: as §1, §2

[3] = system: MiaPaCa-2, a K-Ras G12C expressing pancreatic cancer cell line; assay: as above; type: cell-based; conditions: 4.5 nM FabZAP, 5 days
BXPC3 K-Ras^WT = assay: as above; type: cell-based; conditions: 4.5 nM FabZAP, 5 days
tumor cell = assay: Tumor cell killing by saporin alone without targeting antibodies (FIG. 3); type: cell-based
Method: FIG. 3 is a graphical representation of tumor cell killing, defined as % of cells alive compared to untreated control cultures with various concentrations of saporin alone without targeting antibodies. Representative of 3 replicates per group. Arrow points to 4.5 nM saporin. This 4.5 nM concentration, conjugated to the secondary antibody, is utilized in the antibody-drug conjugate (ADC) assays described in Example 3.
as §2

[4] = system: human tumor cell line PANC-1; assay: Cell line-derived xenograft model of pancreatic cancer, in vivo ADC experiment; design: species or system Balb/c nude mice; conditions: 10 mg/kg i.v. QW × 2 weeks; gemcitabine 50 mg/kg i.p. BIW × 2 weeks
Method: DXd is a protease cleavable linker attached to a derivative of exatecan that acts as topoisomerase I inhibitor. DXd targeted to cancer cells by antibodies as an ADC has been used by FDA-approved […] is a conjugation of anti-Her-2 antibody and deruxtecan. DXd was conjugated via stochastic maleimide conjugation to interchain cysteines of the antibodies. The antibodies were first reduced using 10× molar equivalents of 10 mM TCEP at 37° C. for 90 minutes with shaking. The reduced antibodies were then conjugated with 10× molar equivalents of 10 mM DXd at room temperature for 2 hours. Conjugated antibodies were evaluated for the drug to antibody ratio (DAR) by reducing 10 μg of the crude conjugate with DTT at 37° C. for 30 minutes. The final DAR for the conjugated antibodies was 8. The multimeric state of the conjugated antibodies was evaluated by size exclusion chromatography and confirmed to be monomeric. Conjugated antibodies were purified from unconjugated DXd by dialysis against PBS, pH 5.6 with a 10K molecular-weight cut-off (MWCO) membrane for 48 hours. Next, we utilized a cell line-derived xenograft model of pancreatic cancer, where the human tumor cell line PANC-1 was implanted into Balb/c nude mice. The nude mouse is a naturally mutated mouse that lacks a thymus and hair (nude). […]

PANC-1 cells [5] = assay: Surface K-Ras availability after drug treatment (antibody 1 staining, MFI fold change); type: cell-based, human
Method: For 5-FU treatment, 100,000 PANC-1 cells were seeded into 24 well replicate plates. Cells were allowed to grow for 24 hours before 10 uM of 5-FU was added to the culture media. At 0-, 72-, and 120-hours cells were dislodged by using TryPLE express and resuspended in buffer containing PBS pH 7.2, 5% FCS. Cells were stained with human K-Ras antibody 1. All staining was performed at 10 μg/ml of antibody concentration and a volume of 100ul for 30 minutes on ice in V-bottom 96 well plates. Surface K-Ras staining was quantitated by measuring the MFI of cells mock treated or treated with 5-FU. The fold change was calculated by normalizing to the cells stained with isotype control.

[6] = system: Panc-1 (K-Ras G12D mutant); assay: Growth and viability of pancreatic cancer cells cultured with R11.1.6 constructs (cell count, Trypan blue); type: cell-based, human; conditions: Panc-1, 20,000 cells/well, counted after 5 days of culture
Method: We next evaluated growth as well as viability of two pancreatic cancer cell lines driven by either G12D (Panc-1) or G12C (MiaPaca-2) mutant K-Ras in vitro. We plated 20,000 cells/well in Dulbecco's modified Eagles media (DMEM) with 10% fetal bovine serum (FBS) in a flat bottom 96 well plate and counted cells after 5 days of culture. Viability of cells were calculated based on Trypan blue dye exclusion method, where dead cells were blue due to uptake of the viability dye and live cells were not stained. Viability was measured by using Countess II FL cell viability and cell counter instrument by Invitrogen (ThermoFisher USA).
Further evaluation of growth inhibition was performed with control Sulfolobus solfataricus-derived proteins of similar molecular weight. […] We started with 200,000 cells in a 96 well V-bottom plate and used BD phosflow buffer set III (BD biosciences, catalog number 558050) to stabilize and optimize the phosphor moiety. Next, we stained the cells with anti-phospho-Akt (ser473, Clone D9E) PE conjugated (Cell Signaling Technologies, Catalog number 5315S) at a concentration of 0.125 ug/100 ul or anti-phosho-ERK1/2, PE conjugated (ThermoFisher USA catalog number 12-9109-42) at a concentration of 0.125 ug/100 ul. Cells were washed in FACS staining buffer and run in a LSR Fortessa II flow cytometer (BD Biosciences, USA). […]

PANC-1 cells [7] = assay: Human Fab-ZAP assay with MRTX1133 treatment (XTT); type: cell-based; conditions: 10 nM MRTX1133, 4.5 nM FabZAP, 5 days
Description: In this example, we used the commercially available human Fab-ZAP assay (Advanced Targeting Systems Inc.), similar to Example 3, to test whether increasing surface K-Ras availability with MRTX1133 would potentiate killing with surface K-Ras targeted ADCs. For the experiments described below, we utilized the Fab-ZAP human kit [IT-51, KIT-51](atsbio.com/products/it51/), consisting of a chemical conjugate of goat […] monovalent antibody and the ribosome-inactivating protein, saporin. The antibodies used in this kit are affinity-purified polyclonal antibodies against both the heavy and light chain of […].
In one experiment, we tested whether increasing surface K-Ras availability with the small molecule inhibitor MRTX1133 would potentiate killing with surface K-Ras targeted ADCs. […] After 5 days incubation at 37 C in a 5% CO2 incubator, the percentage of viable cells compared to control wells with 4.5 nM FabZAP alone was determined using XTT assay according to the described protocol (Advanced Targeting Systems Inc cytotoxic assay protocol). […] Plates were then incubated at 37 C for at least 30 mins, and absorbance was read at 450 nm in a plate reader. This assay relies on detecting the number of viable cells remaining on the day of development as measured via cell metabolism of a colorimetric molecule within the developing reagents. […]

Compound: Saporin
- cell-specific killing (% of cells alive) [1]: showed killing
- cell-specific killing (% of cells alive) [2]: showed killing
- cell-specific killing (% of cells alive) [3]: showed killing
- cell-specific killing (% of cells alive) (BXPC3 K-Ras^WT): showed killing
- toxicity of saporin without a targeting agent (tumor cell; 4.5 nM concentration used in the ADC assay): no toxicity is evident at the 4.5 nM concentration
- concentration of saporin alone causing cell death (tumor cell; without targeting antibodies): ≥ 100 nM

Compound: Nc1ccn([C@@H]2O[C@H](CO)[C@@H](O)C2(F)F)c(=O)n1 [gemcitabine, Gemcitabine]
- body weight [4]: demonstrated distress based on weight loss
- tumor growth (tumor volume) [4]: slowed tumor growth over either ADC or antibody treatment

Compound: O=c1[nH]cc(F)c(=O)[nH]1 [5-FU, fluorouracil]
- availability of surface K-Ras (MFI fold change) (PANC-1 cells [5]; 10 uM, 0, 72 and 120 hours): increased the availability of surface K-Ras in Panc-1 cells

Compound: C#Cc1c(F)ccc2cc(O)cc(-c3ncc4c(N5CC6CCC(C5)N6)nc(OC[C@@]56CCCN5C[C@H](F)C6)nc4c3F)c12 [MRTX1133]
- growth and viability [6]: R11.1.6-mediated inhibition of Panc-1 growth and viability was like the G12D inhibitor MRTX1133
- availability of surface K-Ras (MFI fold change) (PANC-1 cells [5]; 10 nM, 0, 72 and 120 hours): increased the availability of surface K-Ras on PANC-1 cells
- cell killing (% alive) (PANC-1 cells [7]): able to kill cells
